Experimental data reported in US12077503B2, “Substituted cyclic amides and their use as herbicides” (FMC CORPORATION, priority 2015, dated 2024).

Assays:
Format in all cases: in vivo
[1] = tested on: barnyardgrass (Echinochloa crus-galli); test: Test G Pre-Emergence Protocol; details: Echinochloa crus-galli, pre-emergence, 312 h, evaluated after 13 days; for pest or weed control at 15.625 g/ha: 15.625 g ai/ha, read-out: Barnyard grass damage rating (100=total damage to plant; 0=no damage to plant); for pest or weed control at 62.5 g/ha: 62.5 g ai/ha, 100=total damage to plant, 0=no damage to plant, read-out: plant damage rating, Barnyardgrass; for pest or weed control at 250 g/ha: 250 g ai/ha, read-out: Barnyardgrass damage rating (100=total damage to plant; 0=no damage to plant)
In short: (§1)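 Visual injury (0–100) at day 13 after a single pre-emergence spray. Rates: 15.625, 62.5, 250 g/ha in acetone–water 50:50 with 0.5% Tween 20. Growth conditions: 24/16° C, 14 h light, 65% humidity.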

corn (Zea mays) [2] = test: Test G Pre-Emergence Protocol; details: Zea mays, pre-emergence, 312 h, evaluated after 13 days; for plant injury at 15.625 g/ha: 15.625 g ai/ha; for plant injury at 15.625 g/ha / plant injury at 250 g/ha: read-out: Corn damage rating (100=total damage to plant; 0=no damage to plant); for plant injury at 62.5 g/ha: 62.5 g ai/ha, 100=total damage to plant, 0=no damage to plant, read-out: plant damage rating, Corn; for plant injury at 250 g/ha: 250 g ai/ha
In short: as §1

[3] = tested on: giant foxtail (Setaria faberi); test: Test G Pre-Emergence Protocol; details: Setaria faberi, pre-emergence, 312 h, evaluated after 13 days; for pest or weed control at 15.625 g/ha: 15.625 g ai/ha; for pest or weed control at 15.625 g/ha / pest or weed control at 250 g/ha: read-out: Foxtail, Giant damage rating (100=total damage to plant; 0=no damage to plant); for pest or weed control at 62.5 g/ha: 62.5 g ai/ha, 100=total damage to plant, 0=no damage to plant, read-out: plant damage rating, Foxtail, Giant; for pest or weed control at 250 g/ha: 250 g ai/ha
In short: as §1

[4] = tested on: ivy-leaved morning glory (Ipomoea hederacea); test: Test G Pre-Emergence Protocol; details: Ipomoea, pre-emergence, 312 h, evaluated after 13 days; for pest or weed control at 15.625 g/ha: 15.625 g ai/ha, read-out: Morning-glory, Ivy-leaved damage rating (100=total damage to plant; 0=no damage to plant); for pest or weed control at 62.5 g/ha: 62.5 g ai/ha, 100=total damage to plant, 0=no damage to plant, read-out: plant damage rating, Morningglory, Ivy-leaved; for pest or weed control at 250 g/ha: 250 g ai/ha, read-out: Morningglory, Ivy-leaved damage rating (100=total damage to plant; 0=no damage to plant)
In short: as §1

[5] = tested on: redroot pigweed (Amaranthus retroflexus); test: Test G Pre-Emergence Protocol; details: Amaranthus retroflexus, pre-emergence, 312 h, evaluated after 13 days; for pest or weed control at 15.625 g/ha: 15.625 g ai/ha; for pest or weed control at 15.625 g/ha / pest or weed control at 250 g/ha: read-out: Pigweed, Redroot damage rating (100=total damage to plant; 0=no damage to plant); for pest or weed control at 62.5 g/ha: 62.5 g ai/ha, 100=total damage to plant, 0=no damage to plant, read-out: plant damage rating, Pigweed, Redroot; for pest or weed control at 250 g/ha: 250 g ai/ha
In short: as §1

[6] = tested on: velvetleaf (Abutilon theophrasti); test: Test G Pre-Emergence Protocol; details: Abutilon theophrasti, pre-emergence, 312 h, evaluated after 13 days; for pest or weed control at 15.625 g/ha: 15.625 g ai/ha; for pest or weed control at 15.625 g/ha / pest or weed control at 250 g/ha: read-out: Velvetleaf damage rating (100=total damage to plant; 0=no damage to plant); for pest or weed control at 62.5 g/ha: 62.5 g ai/ha, 100=total damage to plant, 0=no damage to plant, read-out: plant damage rating, Velvetleaf; for pest or weed control at 250 g/ha: 250 g ai/ha
In short: as §1

[7] = tested on: barnyardgrass (Echinochloa crus-galli); test: Test G Post-Emergence Protocol; details: Echinochloa crus-galli, post-emergence, 312 h; for pest or weed control at 15.625 g/ha: 15.625 g ai/ha, evaluated after 13 days (100=total damage to plant; 0=no damage to plant), read-out: Barnyardgrass damage rating; for pest or weed control at 62.5 g/ha: 62.5 g ai/ha, read-out: Barnyardgrass damage rating (100=total damage to plant; 0=no damage to plant); for pest or weed control at 62.5 g/ha / pest or weed control at 250 g/ha: evaluated after 13 days; for pest or weed control at 250 g/ha: 250 g ai/ha, read-out: damage to plant, Barnyardgrass (100=total damage to plant; 0=no damage to plant)
In short: (§2)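 Seedlings grown 8 days in soil in a glasshouse (24/16 °C day/night, 14 h light, 65% humidity) were sprayed post-emergence with compound in acetone/water 50:50 plus 0.5% Tween 20 at 15.625, 62.5 or 250 g/ha. Damage was scored after 13 days on a 0–100 scale (100 = total damage).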

corn (Zea mays) [8] = test: Test G Post-Emergence Protocol; details: Zea mays, post-emergence, 312 h; for plant injury at 15.625 g/ha: 15.625 g ai/ha, evaluated after 13 days (100=total damage to plant; 0=no damage to plant), read-out: Corn damage rating; for plant injury at 62.5 g/ha: 62.5 g ai/ha, read-out: Corn damage rating (100=total damage to plant; 0=no damage to plant); for plant injury at 62.5 g/ha / plant injury at 250 g/ha: evaluated after 13 days; for plant injury at 250 g/ha: 250 g ai/ha, read-out: damage to plant, Corn (100=total damage to plant; 0=no damage to plant)
In short: as §2

[9] = tested on: giant foxtail (Setaria faberi); test: Test G Post-Emergence Protocol; details: Setaria faberi, post-emergence, 312 h; for pest or weed control at 15.625 g/ha: 15.625 g ai/ha, evaluated after 13 days (100=total damage to plant; 0=no damage to plant), read-out: Foxtail, Giant damage rating; for pest or weed control at 62.5 g/ha: 62.5 g ai/ha, read-out: Foxtail, Giant damage rating (100=total damage to plant; 0=no damage to plant); for pest or weed control at 62.5 g/ha / pest or weed control at 250 g/ha: evaluated after 13 days; for pest or weed control at 250 g/ha: 250 g ai/ha, read-out: damage to plant, Foxtail, Giant (100=total damage to plant; 0=no damage to plant)
In short: as §2

[10] = tested on: ivy-leaved morning glory (Ipomoea hederacea); test: Test G Post-Emergence Protocol; details: Ipomoea, post-emergence, 312 h; for pest or weed control at 15.625 g/ha: 15.625 g ai/ha, evaluated after 13 days (100=total damage to plant; 0=no damage to plant), read-out: Morningglory, Ivy-leaved damage rating; for pest or weed control at 62.5 g/ha: 62.5 g ai/ha, read-out: Morningglory, Ivy-leaved damage rating (100=total damage to plant; 0=no damage to plant); for pest or weed control at 62.5 g/ha / pest or weed control at 250 g/ha: evaluated after 13 days; for pest or weed control at 250 g/ha: 250 g ai/ha, read-out: damage to plant, Morningglory, Ivy-leaved (100=total damage to plant; 0=no damage to plant)
In short: as §2

[11] = tested on: redroot pigweed (Amaranthus retroflexus); test: Test G Post-Emergence Protocol; details: Amaranthus retroflexus, post-emergence, 312 h; for pest or weed control at 15.625 g/ha: 15.625 g ai/ha, evaluated after 13 days (100=total damage to plant; 0=no damage to plant), read-out: Pigweed, Redroot damage rating; for pest or weed control at 62.5 g/ha: 62.5 g ai/ha, read-out: Pigweed, Redroot damage rating (100=total damage to plant; 0=no damage to plant); for pest or weed control at 62.5 g/ha / pest or weed control at 250 g/ha: evaluated after 13 days; for pest or weed control at 250 g/ha: 250 g ai/ha, read-out: damage to plant, Pigweed, Redroot (100=total damage to plant; 0=no damage to plant)
In short: as §2

[12] = tested on: velvetleaf (Abutilon theophrasti); test: Test G Post-Emergence Protocol; details: Abutilon theophrasti, post-emergence, 312 h; for pest or weed control at 15.625 g/ha: 15.625 g ai/ha, evaluated after 13 days (100=total damage to plant; 0=no damage to plant), read-out: Velvetleaf damage rating; for pest or weed control at 62.5 g/ha: 62.5 g ai/ha, read-out: Velvetleaf damage rating (100=total damage to plant; 0=no damage to plant); for pest or weed control at 62.5 g/ha / pest or weed control at 250 g/ha: evaluated after 13 days; for pest or weed control at 250 g/ha: 250 g ai/ha, read-out: damage to plant, Velvetleaf (100=total damage to plant; 0=no damage to plant)
In short: as §2

Row | SMILES | pest or weed control at 15.625 g/ha [1] [%] | pest or weed control at 62.5 g/ha [1] [%] | pest or weed control at 250 g/ha [1] [%] | plant injury at 15.625 g/ha (corn (Zea mays) [2]) [%] | plant injury at 62.5 g/ha (corn (Zea mays) [2]) [%] | plant injury at 250 g/ha (corn (Zea mays) [2]) [%] | pest or weed control at 15.625 g/ha [3] [%] | pest or weed control at 62.5 g/ha [3] [%] | pest or weed control at 250 g/ha [3] [%] | pest or weed control at 15.625 g/ha [4] [%] | pest or weed control at 62.5 g/ha [4] [%] | pest or weed control at 250 g/ha [4] [%] | pest or weed control at 15.625 g/ha [5] [%] | pest or weed control at 62.5 g/ha [5] [%] | pest or weed control at 250 g/ha [5] [%] | pest or weed control at 15.625 g/ha [6] [%] | pest or weed control at 62.5 g/ha [6] [%] | pest or weed control at 250 g/ha [6] [%] | pest or weed control at 15.625 g/ha [7] [%] | pest or weed control at 62.5 g/ha [7] [%] | other results
1 | CN1C[C@@H](c2ccc(C(F)(F)F)cc2)[C@H](C(=O)Nc2ccc(Cl)cc2F)C1=O (racemic) [Compound 1602] | 0 | 0 | 40 | 0 | 0 | 0 | 0 | 30 | 70 | 0 | 0 | 0 | 0 | 30 | 40 | 0 | 0 | 10 | 0 | 20 | pest or weed control at 250 g/ha [7]: 40%; plant injury at 15.625 g/ha (corn (Zea mays) [8]): 0%; plant injury at 62.5 g/ha (corn (Zea mays) [8]): 0%; plant injury at 250 g/ha (corn (Zea mays) [8]): 20%; pest or weed control at 15.625 g/ha [9]: 0%; pest or weed control at 62.5 g/ha [9]: 60%; pest or weed control at 250 g/ha [9]: 80%; pest or weed control at 15.625 g/ha [10]: 10%; pest or weed control at 62.5 g/ha [10]: 50%; pest or weed control at 250 g/ha [10]: 50%; pest or weed control at 15.625 g/ha [11]: 0%; pest or weed control at 62.5 g/ha [11]: 50%; pest or weed control at 250 g/ha [11]: 70%; pest or weed control at 15.625 g/ha [12]: 0%; pest or weed control at 62.5 g/ha [12]: 20%; pest or weed control at 250 g/ha [12]: 40%
2 | CN1C[C@H](c2ccc(C(F)(F)F)cc2)[C@@H](C(=O)Nc2ccc(F)c(F)c2)C1=O (racemic) [Compound 1412] | 0 | 30 | 60 | 0 | 10 | 10 | 10 | 50 | 80 | 0 | 0 | 0 | 20 | 20 | 10 | 0 | 0 | 10 | 0 | 50 | pest or weed control at 250 g/ha [7]: 60%; plant injury at 15.625 g/ha (corn (Zea mays) [8]): 20%; plant injury at 62.5 g/ha (corn (Zea mays) [8]): 10%; plant injury at 250 g/ha (corn (Zea mays) [8]): 10%; pest or weed control at 15.625 g/ha [9]: 0%; pest or weed control at 62.5 g/ha [9]: 60%; pest or weed control at 250 g/ha [9]: 70%; pest or weed control at 15.625 g/ha [10]: 0%; pest or weed control at 62.5 g/ha [10]: 0%; pest or weed control at 250 g/ha [10]: 20%; pest or weed control at 15.625 g/ha [11]: 30%; pest or weed control at 62.5 g/ha [11]: 40%; pest or weed control at 250 g/ha [11]: 40%; pest or weed control at 15.625 g/ha [12]: 0%; pest or weed control at 62.5 g/ha [12]: 40%; pest or weed control at 250 g/ha [12]: 40%
3 | CN1C[C@@H](c2ccc(C(F)(F)F)nc2)[C@H](C(=O)Nc2ccccc2S(C)(=O)=O)C1=O (racemic) [Compound 1586] | 0 | 0 | 90 | 0 | 10 | 30 | 0 | 20 | 70 | 0 | 0 | 10 | 0 | 40 | 60 | 0 | 0 | 30 | 0 | 0 | pest or weed control at 250 g/ha [7]: 50%; plant injury at 15.625 g/ha (corn (Zea mays) [8]): 0%; plant injury at 62.5 g/ha (corn (Zea mays) [8]): 0%; plant injury at 250 g/ha (corn (Zea mays) [8]): 30%; pest or weed control at 15.625 g/ha [9]: 0%; pest or weed control at 62.5 g/ha [9]: 0%; pest or weed control at 250 g/ha [9]: 70%; pest or weed control at 15.625 g/ha [10]: 0%; pest or weed control at 62.5 g/ha [10]: 0%; pest or weed control at 250 g/ha [10]: 40%; pest or weed control at 15.625 g/ha [11]: 0%; pest or weed control at 62.5 g/ha [11]: 0%; pest or weed control at 250 g/ha [11]: 40%; pest or weed control at 15.625 g/ha [12]: 0%; pest or weed control at 62.5 g/ha [12]: 10%; pest or weed control at 250 g/ha [12]: 10%
